Source: patent US6982252B2, “Inhibition of vacuolar proton ATPase activity and/or the modulation of acidic organelle function sensitizes cells to radiation, chemotherapy and biological agents” (Memorial Sloan-Kettering Cancer Center, priority 2000, dated 2006)
Marks after values point to notes of the source that are not given here.

Assays:
[1] = test system: MCF-7 (human breast adenocarcinoma); assay: Clonogenic survival (surviving fraction) of MCF-7 cells after radiation or chemotherapeutic agent; type: cell-based
[2] = test system: acidic vesicular organelles (AVO) in MCF-7 cells; assay: Mean red/green fluorescence ratio in acridine orange stained cells by flow cytometry; type: cell-based, human; conditions: 500 nM bafilomycin A1 30 minutes prior to acridine orange
Method: bFGF was added to cultures of MCF-7 cells at 10 ng/ml for 48 hours. TNF was added at 2.3 nM for 48 hours. PMA was added for 1 hour at a concentration of 30 nM, followed by rinsing of the cells and incubation for an additional 48 hours.
Cell staining was performed according to standard techniques (Arvan et al., 1984, J. Bio. Chem. 259:13567-13572; Mains and May, 1988, J. Biol. Chem. 263:7887-7894; Traganos and Darzynkiewicz, Methods in Cell Biology 41:185-194, Academic Press). Acridine orange (Polysciences, Warrington, Pa.) was added to a final concentration of 1 μg/ml for 15 minutes. Bafilomycin A1 (Sigma Chemical Co., St. Louis, Mo.) was dissolved in DMSO and added to the cells 30 minutes prior to the addition of acridine orange. LysoSensor Blue DND-167 (Molecular Probes, Eugene, Oreg.) at a final concentration of 10 μM was added for 8 minutes. Pictures were obtained with a fluorescence microscope (Olympus BH-2 RFCA), equipped with a mercury-100 W lamp, 490 nm band pass blue excitation filters, 500 nm dichroic mirror and a 515 nm long pass barrier filter. Images of control and irradiated cells were recorded on Kodak Elite II 100 ASA film for color slides by 4 seconds exposure.
In acridine orange stained cells the cytoplasm and nucleolus fluoresce bright green and dim red, while acidic compartments fluoresce bright red (Mains and May, 1988, J. Biol. Chem. 263:7887-7894; Traganos and Darzynkiewicz, Methods in Cell Biology Vol. 41, pp. 185-194, Academic Press). The intensity of the red fluorescence is proportional to the degree of acidity and/or the volume of the cellular acidic compartment. Therefore, by comparing the mean red/green fluorescence ratio within different cell populations, a change in the degree of acidity and/or the fractional volume of the cellular acidic compartment could be measured. Cells were stained with acridine orange for […], removed from the plate with trypsin-EDTA and collected in phenol red-free growth medium. Green (510-530 nm) and red (>650 nm) Fluoresence emission from 10,000 cells illuminated with blue (488 nm) excitation light was measured with a FACSCalibur from Becton Dickinson (San Jose, Calif.) using CellQuest software. The red to green fluorescence ratio for individual cells was calculated using FlowJo software (TREE STAR, Inc., San Carlos, Calif.). To control for possible effect of trypsinization on the measured red to green fluorescence ratio, the ratios were compared by flow cytometry with those obtained with a Laser Scanning Microscope (LSM510 from Zeiss). Stained cells, grown on cover glass, were illuminated with a 488 nm argon laser beam. The red (>650 nm) to green (505-545 nm) fluorescence ratio of an entire image was obtained using software LSM 510 version 2.01 SP2. These measurements yielded similar results to those obtained with flow cytometry. All determinations of red to green fluorescence ratio reported in this section were obtained via flow cytometry.

[3] = test system: Capan-1 human pancreatic cancer cell line; conditions: Capan-1 in vitro; cited from earlier work
F and P-type ATPases = conditions: cited from earlier work
[4] = test system: DNA of irradiated MCF-7 cells; assay: DNA fragmentation by pulse field gel electrophoresis (PFGE); type: cell-based, human; conditions: bafilomycin A1 (4 nM) added two days following 10 Gy, for 24 hours
Method: FIG. 6. Bafilomycin A1 enhances DNA fragmentation in irradiated cells: Cells were irradiated 48 hours post-plating and bafilomycin A1 (4 nM) was added 48 hours following irradiation, for the duration of 24 hours, from concentrated stock solution at dimethylsulfoxide (DMSO) to a final concentration of 4 nM. Control cells received the vehicle alone. Cells were harvested 72 hours following irradiation. Plug preparation and resolution of DNA was conducted according to Gilles et al. (2000, Blood 95:2930-2936). M-DNA size standard, lambda 50 kb ladder. A-Unirradiated controls. B-Cells irradiated with 10 Gy. C-Unirradiated cells incubated with 4 nM bafilomycin A1. D-Cells irradiated with 10 Gy and incubated with 4 nM bafilomycin A1. Window of DNA resolution was 20 kb-1000 kb. Arrow 1 points to sample origin. Arrow 2 points to zone of no resolution.
DNA extraction and electrophoresis on agarose gel was carried out according to Bose et al., 1995, Cell 82:405-414. DNA preparation and resolution with pulse field gel electrophoresis (PFGE) was conducted as described in Gilles et al., 2000, Blood 95:2930-2936 utilizing the CHEF Mapper (Bio-Rad, Richmond, Calif.). DNA strand breaks were assayed by the TUNEL method and analyzed by flow cytometry (Haimovitz-Friedman, 1994, J. Exp. Med. 180:525-535).

bafilomycin A1
survival, column Adriamycin ([1]; Table 15, Bafilomycin 2 nM + 100 nM adriamycin, average of two plates): (0.56; 0.58)0.57* | cell survival, Bafilomycin A1 (2 nM) ([1]; Table 18, Bafilomycin A1 2 nM, Etoposide 0 μg/ml): 0.9 ± 0.09 | decrease of survival in the presence of etoposide ([1]; bafilomycin 2 nM, etoposide 0.05 μg/ml, Table 18): 54% | radiation-induced increase of mean red/green fluorescence ratio ([2]; 24 hours following 10 Gy): inhibited its radiation-induced increase | mean red/green fluorescence ratio in unirradiated cells ([2]; unirradiated): decreased | concentrations reported to induce apoptosis [3]: greater than 10 nM | concentration range at which F and P-type ATPases activities are affected (F and P-type ATPases): μM range | DNA cleavage into large fragments (20-1000 kb) [4]: dramatically increased DNA clevage into large fragments
